# Measurements from patent publication US8603527B2, “Pharmaceutical formulations of a substituted diaminopurine” (Signal Pharmaceuticals, LLC, priority 2010, dated 2013).
# Assay: Pharmacokinetics (plasma and urine) of ascending multiple oral doses in healthy volunteers
# Format: in vivo, human
# Parameters: Cmax: unit: ng/mL
# Conditions: for AUC(0-∞) / Cmax / Ctrough / RA (ratio of accumulation) / t1/2 / Tmax: Day 14 (N = 8); for AUC(0-∞) / Cmax / Ctrough / RA (ratio of accumulation) / t1/2 / AUC(0-τ): geometric mean; for Tmax: median; for AUC(0-τ): Day 14, τ = 24 hours (N = 8)
# Excerpt: Subjects: Forty healthy male and female subjects between the ages of 20 and 50 were enrolled in the study. All subjects were in good health as determined by a medical history, physical examination, 12-lead ECG, serum biochemistry, hematology, urinalysis and virology. Subjects were not permitted to take any prescribed medication within 30 days or non-prescribed medication within 7 days of the first dose administration.
# Study Design: This study was a randomized, double-blind, placebo-controlled, ascending-dose trial to evaluate the safety, tolerability and pharmacokinetics (PK) of multiple oral doses of Compound I. Subjects were enrolled into 1 of the 4 cohorts, 10 subjects per cohort (active:placebo=8:2). Subjects received a multiple oral dose of 25, 50, 100, or 200 mg unformulated Compound I in a capsule, or matching placebo, once daily (QD) for 14 days.
# Assessments: Safety and tolerability were assessed by adverse event (AE) monitoring, clinical laboratory testing, vital sign measurement, 12-lead ECG measurement, concomitant medication assessment, and physical examination. Blood and urine samples were collected to assess the PK profile of Compound I and the S-cis isomer of Compound I. Blood samples (˜5 mL) for plasma PK analysis were collected in K2-EDTA vacutainer tubes to yield approximately 2 mL of plasma at each of the following time points: (i) Day 1: before dosing, and 0.25, 0.5, 1, 1.5, 2, 2.5, 3, 4, 6, 8, 10, 12, 16, and 24 hours after dosing; (ii) Day 3 to Day 9: before dosing; (iii) Day 10: before dosing, and 0.25, 0.5, 1, 1.5, 2, 2.5, 3, 4, 6, 8, 10, 12, and 16 hours after dosing; (iv) Day 11 to Day 13: before dosing; (v) Day 14: before dosing, and 0.25, 0.5, 1, 1.5, 2, 2.5, 3, 4, 6, 8, 10, 12, 16, 24, 48, 72, 96, 120, 144, and 168 hours after dosing. Urine samples for the PK analysis were collected as a single block at: (i) Day 1: before dosing (spot collection), 0 to 8, 8 to 16, and 16 to 24 hours after dosing; and (ii) Day 14: 0 to 8, 8 to 16, and 16 to 24 hours after dosing. Both plasma and urine concentrations of Compound I and its S-cis isomer were measured using validated liquid chromatography-tandem mass spectrometry (LC/MS/MS).
# Data Analysis: Safety data were summarized using descriptive statistics by treatment. PK parameters for Compound I and its S-cis isomer were calculated using non-compartmental analysis using WinNonlin (Version 5.0.1 or greater; Pharsight Corporation, Mountain View, Calif.). Dose proportionality and dose independence were evaluated by visual inspection. Intra-subject variability was assessed using an ANOVA model using data from Days 10 and 14.
# [1] = S-cis isomer in plasma after Compound I 25 mg QD
# [2] = S-cis isomer in plasma after Compound I 50 mg QD
# [3] = S-cis isomer in plasma after Compound I 100 mg QD
# [4] = S-cis isomer in plasma after Compound I 200 mg QD
compound,measurement,setting,value
OC1CCC(Nc2ncc3nc(Nc4c(F)cc(F)cc4F)n(C4CCOC4)c3n2)CC1 (stereo not drawn) [S-cis isomer of Compound I],AUC(0-∞),[1],0.18014 µg·h/mL
same,Cmax,[1],5.43 ng/mL
same,Ctrough,[1],2.33 ng/mL
same,RA (ratio of accumulation),[1],2.02
same,t1/2,[1],28.82 h
same,Tmax,[1],2.5 h
same,AUC(0-τ),[1],0.0784 µg·h/mL
same,AUC(0-∞),[2],0.36588 µg·h/mL
same,Cmax,[2],11.61 ng/mL
same,Ctrough,[2],4.93 ng/mL
same,RA (ratio of accumulation),[2],2.28
same,t1/2,[2],25.39 h
same,Tmax,[2],3.0 h
same,AUC(0-τ),[2],0.17701 µg·h/mL
same,AUC(0-∞),[3],0.54106 µg·h/mL
same,Cmax,[3],14.87 ng/mL
same,Ctrough,[3],7.14 ng/mL
same,RA (ratio of accumulation),[3],1.88
same,t1/2,[3],28.17 h
same,Tmax,[3],2.5 h
same,AUC(0-τ),[3],0.23726 µg·h/mL
same,AUC(0-∞),[4],0.80407 µg·h/mL
same,Cmax,[4],27.69 ng/mL
same,Ctrough,[4],10.90 ng/mL
same,RA (ratio of accumulation),[4],1.50
same,t1/2,[4],23.93 h
same,Tmax,[4],2.5 h
same,AUC(0-τ),[4],0.40433 µg·h/mL
same,systemic exposure relative to that of Compound I,after Compound I QD dosing,about 2%
